PubChem BioAssay AID248 (DTP/NCI, 2004)
Where “and” joins values, the source holds several entries; their conditions need not be identical. Identical values can stand only once. Inconclusive results and toxic doses are left out.

Test system: L1210 leukemia ip in BDF1 mice, survival T/C
Experiment: NCI In Vivo Anticancer Drug Screen. Data for tumor model L1210 Leukemia (intraperitoneal) in B6D2F1 (BDF1) mice
Details: endpoint: mean survival time, higher = longer survival
Method in brief: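 Value reflects the ratio of survival in compound-treated mice to survival in vehicle-treated controls, with both groups carrying the same transplanted tumor.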

[1] = dose: 100.0 mg/kg/injection, schedule: Q04DX002 (ip), vehicle: saline
[2] = dose: 200.0 mg/kg/injection, schedule: Q04DX002 (ip), vehicle: saline
[3] = dose: 100.0 mg/kg/injection, schedule: Q04DX003 (ip), vehicle: Klucel (hydroxypropylcellulose) (HPC)
[4] = dose: 200.0 mg/kg/injection, schedule: Q04DX003 (ip), vehicle: Klucel (hydroxypropylcellulose) (HPC)
[5] = dose: 100.0 mg/kg/injection, schedule: Q01DX009 (ip), vehicle: saline with Tween-80
[6] = dose: 200.0 mg/kg/injection, schedule: Q01DX009 (ip), vehicle: saline with Tween-80
[7] = dose: 100.0 mg/kg/injection, schedule: Q01DX009 (ip), vehicle: saline
[8] = dose: 400.0 mg/kg/injection, schedule: Q01DX009 (ip), vehicle: saline
[9] = dose: 100.0 mg/kg/injection, schedule: Q01DX001 (ip), vehicle: Klucel (hydroxypropylcellulose) (HPC)
[10] = dose: 200.0 mg/kg/injection, schedule: Q01DX001 (ip), vehicle: Klucel (hydroxypropylcellulose) (HPC)
[11] = dose: 25.0 mg/kg/injection, schedule: Q04DX003 (ip), vehicle: saline
[12] = dose: 50.0 mg/kg/injection, schedule: Q04DX003 (ip), vehicle: saline
[13] = dose: 400.0 mg/kg/injection, schedule: Q01DX001 (ip), vehicle: Klucel (hydroxypropylcellulose) (HPC)
[14] = dose: 400.0 mg/kg/injection, schedule: Q04DX003 (ip), vehicle: Klucel (hydroxypropylcellulose) (HPC)

SMILES: CCN(O)C(N)=O
- T/C (dose: 34.5 mg/kg/injection, schedule: Q01DX009 (ip), vehicle: saline): 107 % of control
- T/C (dose: 52.0 mg/kg/injection, schedule: Q01DX009 (ip), vehicle: saline): 111 % of control
- T/C (dose: 62.0 mg/kg/injection, schedule: Q03HX024 (ip), vehicle: saline): 101 % of control
- T/C (dose: 78.0 mg/kg/injection, schedule: Q01DX009 (ip), vehicle: saline): 113 % of control
- T/C (dose: 117.0 mg/kg/injection, schedule: Q01DX009 (ip), vehicle: saline): 110 % of control and 122 % of control (2×)
- T/C (dose: 125.0 mg/kg/injection, schedule: Q03HX024 (ip), vehicle: saline): 98 % of control
- T/C (dose: 178.0 mg/kg/injection, schedule: Q01DX009 (ip), vehicle: saline): 112 % of control
- T/C (dose: 600.0 mg/kg/injection, schedule: Q01DX009 (ip), vehicle: saline): 166 % of control and 167 % of control

SMILES: C/C(=N\O)C(C)(C)O
- T/C [1]: 101 % of control
- T/C [2]: 108 % of control
- T/C (dose: 400.0 mg/kg/injection, schedule: Q04DX002 (ip), vehicle: saline): 105 % of control

SMILES: CCN(CC)Cc1ccccc1COC(=O)c1ccc(OC)cc1
- T/C [1]: 103 % of control
- T/C [2]: 103 % of control

SMILES: CC(C)N(SSN(C(C)C)C(C)C)C(C)C
- T/C (dose: 100.0 mg/kg/injection, schedule: Q04DX003 (ip), vehicle: saline with Tween-80): 95 % of control
- T/C (dose: 200.0 mg/kg/injection, schedule: Q04DX003 (ip), vehicle: saline with Tween-80): 100 % of control
- T/C (dose: 400.0 mg/kg/injection, schedule: Q04DX003 (ip), vehicle: saline with Tween-80): 89 % of control

SMILES: O=S1(=O)N=C(Cl)c2ccccc21
- T/C (dose: 50.0 mg/kg/injection, schedule: Q04DX003 (ip), vehicle: Klucel (hydroxypropylcellulose) (HPC)): 105 % of control
- T/C [3]: 108 % of control
- T/C [4]: 97 % of control

SMILES: CCC1(c2ccccc2)C(=O)NC(=O)N(CN2CCOCC2)C1=O (stereo not drawn)
- T/C (dose: 50.0 mg/kg/injection, schedule: Q01DX009 (ip), vehicle: saline with Tween-80): 114 % of control
- T/C [5]: 93 % of control
- T/C [6]: 97 % of control

SMILES: O=[N+]([O-])c1ccccc1SSc1ccccc1[N+](=O)[O-]
- T/C (dose: 50.0 mg/kg/injection, schedule: Q01DX001 (ip), vehicle: carboxymethylcellulose (CMC)): 105 % of control
- T/C (dose: 100.0 mg/kg/injection, schedule: Q01DX001 (ip), vehicle: carboxymethylcellulose (CMC)): 94 % of control
- T/C [5]: 95 % of control
- T/C (dose: 200.0 mg/kg/injection, schedule: Q01DX001 (ip), vehicle: carboxymethylcellulose (CMC)): 109 % of control
- T/C [6]: 98 % of control
- T/C (dose: 400.0 mg/kg/injection, schedule: Q01DX001 (ip), vehicle: carboxymethylcellulose (CMC)): 100 % of control
- T/C (dose: 400.0 mg/kg/injection, schedule: Q01DX009 (ip), vehicle: saline with Tween-80): 98 % of control

SMILES: CCOC(=O)CCC(C)=O
- T/C [7]: 102 % of control
- T/C (dose: 200.0 mg/kg/injection, schedule: Q01DX009 (ip), vehicle: saline): 96 % of control
- T/C [8]: 96 % of control

SMILES: CCCCC[C@H](O)/C=C/[C@H]1[C@H](O)CC(=O)[C@@H]1C/C=C\CCCC(=O)O
- T/C (dose: 0.37 mg/kg/injection, schedule: Q04DX002 (ip), vehicle: Klucel (hydroxypropylcellulose) (HPC)): 100 % of control
- T/C (dose: 0.75 mg/kg/injection, schedule: Q04DX002 (ip), vehicle: Klucel (hydroxypropylcellulose) (HPC)): 103 % of control
- T/C (dose: 1.5 mg/kg/injection, schedule: Q04DX002 (ip), vehicle: Klucel (hydroxypropylcellulose) (HPC)): 111 % of control
- T/C (dose: 3.0 mg/kg/injection, schedule: Q04DX002 (ip), vehicle: Klucel (hydroxypropylcellulose) (HPC)): 118 % of control
- T/C (dose: 6.0 mg/kg/injection, schedule: Q04DX002 (ip), vehicle: Klucel (hydroxypropylcellulose) (HPC)): 96 % of control
- T/C (dose: 12.0 mg/kg/injection, schedule: Q04DX002 (ip), vehicle: Klucel (hydroxypropylcellulose) (HPC)): 96 % of control
- T/C (dose: 24.0 mg/kg/injection, schedule: Q04DX002 (ip), vehicle: Klucel (hydroxypropylcellulose) (HPC)): 100 % of control
- T/C (dose: 25.0 mg/kg/injection, schedule: Q04DX002 (ip), vehicle: saline with Tween-80): 98 % of control
- T/C (dose: 50.0 mg/kg/injection, schedule: Q04DX002 (ip), vehicle: saline with Tween-80): 98 % of control
- T/C (dose: 100.0 mg/kg/injection, schedule: Q04DX002 (ip), vehicle: saline with Tween-80): 105 % of control
- T/C (dose: 200.0 mg/kg/injection, schedule: Q04DX002 (ip), vehicle: saline with Tween-80): 102 % of control
- T/C (dose: 400.0 mg/kg/injection, schedule: Q04DX002 (ip), vehicle: saline with Tween-80): 98 % of control

SMILES: CNc1ncnc(Cl)c1N
- T/C [9]: 103 % of control
- T/C [10]: 107 % of control

SMILES: C[N+](C)(C)C1CS(=O)C1 (stereo not drawn)
- T/C (dose: 12.5 mg/kg/injection, schedule: Q04DX003 (ip), vehicle: saline): 96 % of control
- T/C [11]: 112 % of control
- T/C [12]: 87 % of control

SMILES: c1ccc2c(c1)ccc1cc3c(ccc4ccccc43)cc12
- T/C (dose: 25.0 mg/kg/injection, schedule: Q01DX001 (ip), vehicle: Klucel (hydroxypropylcellulose) (HPC)): 106 % of control
- T/C (dose: 50.0 mg/kg/injection, schedule: Q01DX001 (ip), vehicle: Klucel (hydroxypropylcellulose) (HPC)): 109 % of control
- T/C [9]: 108 % of control
- T/C [10]: 108 % of control
- T/C [13]: 109 % of control

SMILES: CCN1C(=O)CC2(CCN(C)CC2)C1=O
- T/C (dose: 0.78 mg/kg/injection, schedule: Q01DX009 (ip), vehicle: saline): 98 % of control
- T/C (dose: 1.56 mg/kg/injection, schedule: Q01DX009 (ip), vehicle: saline): 102 % of control
- T/C (dose: 3.12 mg/kg/injection, schedule: Q01DX009 (ip), vehicle: saline): 95 % of control
- T/C (dose: 6.25 mg/kg/injection, schedule: Q01DX009 (ip), vehicle: saline): 117 % of control
- T/C (dose: 12.5 mg/kg/injection, schedule: Q01DX009 (ip), vehicle: saline): 117 % of control
- T/C (dose: 25.0 mg/kg/injection, schedule: Q01DX009 (ip), vehicle: saline): 98 % of control
- T/C [11]: 113 % of control
- T/C (dose: 50.0 mg/kg/injection, schedule: Q01DX009 (ip), vehicle: saline): 104 % of control and 113 % of control
- T/C [12]: 115 % of control
- T/C [7]: 93 % of control and 100 % of control
- T/C (dose: 100.0 mg/kg/injection, schedule: Q04DX003 (ip), vehicle: saline): 105 % of control
- T/C (dose: 200.0 mg/kg/injection, schedule: Q04DX003 (ip), vehicle: saline): 112 % of control
- T/C [8]: 93 % of control
- T/C (dose: 400.0 mg/kg/injection, schedule: Q04DX003 (ip), vehicle: saline): 109 % of control

SMILES: c1ccc(C2=NC(c3ccccc3)C(c3ccccc3)N2)cc1 (stereo not drawn)
- T/C [9]: 97 % of control
- T/C [10]: 94 % of control
- T/C [13]: 89 % of control

SMILES: O=C(NC(=O)c1ccc(Cl)c(Cl)c1)Nc1ccccc1C(F)(F)F
- T/C [3]: 102 % of control
- T/C [4]: 98 % of control
- T/C [14]: 98 % of control

SMILES: Oc1ccccc1C=Nc1ccccc1S.[Cu+2]
- T/C (dose: 100.0 mg/kg/injection, schedule: Q01DX001 (ip), vehicle: other): 97 % of control
- T/C (dose: 200.0 mg/kg/injection, schedule: Q01DX001 (ip), vehicle: other): 94 % of control
- T/C (dose: 400.0 mg/kg/injection, schedule: Q01DX001 (ip), vehicle: other): 96 % of control

SMILES: CCCCCC#CC(=O)O
- T/C (dose: 100.0 mg/kg/injection, schedule: Q01DX009 (ip), vehicle: Klucel (hydroxypropylcellulose) (HPC)): 105 % of control
- T/C [3]: 98 % of control
- T/C (dose: 200.0 mg/kg/injection, schedule: Q01DX009 (ip), vehicle: Klucel (hydroxypropylcellulose) (HPC)): 106 % of control
- T/C [4]: 98 % of control
- T/C (dose: 400.0 mg/kg/injection, schedule: Q01DX009 (ip), vehicle: Klucel (hydroxypropylcellulose) (HPC)): 90 % of control
- T/C [14]: 109 % of control

SMILES: O=C(Nc1cccc([N+](=O)[O-])c1)c1ccc(C(=O)Nc2cccc([N+](=O)[O-])c2)cc1
- T/C (dose: 100.0 mg/kg/injection, schedule: Q04DX002 (ip), vehicle: Klucel (hydroxypropylcellulose) (HPC)): 98 % of control
- T/C (dose: 200.0 mg/kg/injection, schedule: Q04DX002 (ip), vehicle: Klucel (hydroxypropylcellulose) (HPC)): 91 % of control
- T/C (dose: 400.0 mg/kg/injection, schedule: Q04DX002 (ip), vehicle: Klucel (hydroxypropylcellulose) (HPC)): 86 % of control

SMILES: CC(C)(Cc1ccccc1)C(C(=O)O)C(=O)O
- T/C (dose: 100.0 mg/kg/injection, schedule: Q01DX001 (ip), vehicle: gum acacia): 91 % of control
- T/C (dose: 200.0 mg/kg/injection, schedule: Q01DX001 (ip), vehicle: gum acacia): 95 % of control
